Laboratory results: US20060079453A1, “Hla binding peptides and their uses” (priority 2002, published 2006)
Values joined by “and” are separate entries in the source; they are usually repeats but may differ in a detail not shown here. Identical values can stand only once. Like-named read-outs stand apart in the source and are kept apart here. No end group written: not given here.

Legend:
[1] = molecular target: HLA-A*2902 (Homo sapiens, UniProt P04439, A270S/D101N/D185E/E176V/E277Q/E87Q/F33T/G231S/H175R/I121M/I218V/I322F/K168Q/L300P/L318F/M331R/P208A/P217A/Q86L/T323A/T345S/V100A/V358M); experiment: MHC molecular binding / Capture assay, IC50: A*2902
[2] = molecular target: HLA-A*3002 (Homo sapiens, UniProt P04439, D101N/D140H/D185E/E176R/F33S/G80R/H175R/K168Q/Q94H/R138E/R41S/V100E); experiment: biochemical; format: binding
[3] = molecular target: HLA-A*0101 (Homo sapiens, UniProt P04439, A114D/A174V/A182V/D101N/D185E/E176A/E190D/L180R/Q94H/R68K/S129P/T187R/V100A/V91M/W191G); experiment: biochemical; format: binding; conditions: Binding affinity to A*0101 (expressed as an IC50)
[4] = molecular target: H-2 Db (Mus musculus, UniProt P01899); experiment: biochemical; format: binding, murine
[5] = molecular target: HLA-A*2402 (Homo sapiens, UniProt P04439, D101N/D140Y/D185E/E176V/E190D/F33S/G103R/G107R/I119L/I121M/I306V/K335N/L105A/L180Q/L300P/N151K/N90K/Q86E/Q94H/R106L/R138H/R89G/T104I/T345S/V100E/W191G/Y123F); experiment: MHC molecular binding / Capture assay, IC50: A*2402
[6] = molecular target: HLA-A*2301 (Homo sapiens, UniProt P04439, D101N/D140Y/D185E/E176V/E190D/F33S/G103R/G107R/H175R/I119L/I121M/I306V/K168Q/K335N/L105A/L300P/N151K/N90K/P307H/Q86E/Q94H/R106L/R138H/R89G/T104I/T345S/V100E/W191G/Y123F); experiment: biochemical; format: binding
[7] = Binding affinity to A*2902 (expressed as an IC50)
[8] = Binding affinity to A*3002 (expressed as an IC50)

Chain of H-2 Db (P61769 21-119): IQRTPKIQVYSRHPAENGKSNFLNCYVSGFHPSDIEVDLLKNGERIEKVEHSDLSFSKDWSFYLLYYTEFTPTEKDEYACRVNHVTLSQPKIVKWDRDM
Chain of H-2 Db (P01899 25-362): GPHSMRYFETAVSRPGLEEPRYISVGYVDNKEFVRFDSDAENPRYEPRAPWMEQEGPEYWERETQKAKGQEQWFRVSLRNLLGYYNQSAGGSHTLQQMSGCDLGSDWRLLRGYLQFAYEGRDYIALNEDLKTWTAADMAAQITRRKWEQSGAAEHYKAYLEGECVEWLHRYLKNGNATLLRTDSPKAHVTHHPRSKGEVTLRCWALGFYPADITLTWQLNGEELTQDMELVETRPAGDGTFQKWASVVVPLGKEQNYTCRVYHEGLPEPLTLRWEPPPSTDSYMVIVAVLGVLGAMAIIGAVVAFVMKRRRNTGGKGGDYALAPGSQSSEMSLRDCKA

ITDIILECVY
IC50 [1]: 7660 nM | IC50 [2]: 505 nM | IC50 [3]: 1.8 nM

KTDQRSEVY
IC50 [1]: 200000 nM | IC50 [2]: 1170 nM | IC50 [3]: 84 nM and 41 nM

RNPRFYNL
IC50 ([4]; Db): > 44000 nM

TGIGNQNII
IC50 ([4]; read-out: Db): 13 nM

YTKVSEFRWY
IC50 [1]: 3310 nM | IC50 [2]: 420 nM | IC50 [3]: 276 nM and 204 nM

TLEKLGPGPGY
IC50 [1, 7]: 4470 nM | IC50 [2, 8]: 1960 nM | IC50 [3]: 269 nM

ETSSALEIPY
IC50 [1]: 12000 nM | IC50 [2]: 7140 nM | IC50 [3]: 19 nM

TALANTIEV
IC50 ([4]; read-out: Db): 16 nM

TLGPGPGTGLY
IC50 [1, 7]: 1320 nM | IC50 [2, 8]: 7.4 nM | IC50 [3]: 350 nM

CC[C@H](C)[C@H](NC(=O)[C@H](Cc1c[nH]cn1)NC(=O)[C@H](Cc1ccccc1)NC(=O)[C@@H](N)Cc1c[nH]c2ccccc12)C(=O)N[C@@H](CO)C(=O)N[C@@H](CS)C(=O)N[C@@H](CC(C)C)C(=O)N[C@H](C(=O)N[C@@H](Cc1ccccc1)C(=O)O)[C@@H](C)O
IC50 [5]: 204 nM | IC50 [1]: 95 nM | IC50 [6]: 11 nM | IC50 [2]: 75100 nM | IC50 [3]: 85300 nM

LTDIEITCVY
IC50 [1]: 540 nM | IC50 [2]: 80 nM | IC50 [3]: 12 nM and 33 nM

KVPRNQDWL
IC50 ([4]; Db): 38 nM

QTEQATSNY
IC50 [1]: 119000 nM | IC50 [2]: 3250 nM | IC50 [3]: 14 nM

CC[C@H](C)[C@H](N)C(=O)N[C@H](C(=O)N[C@@H](Cc1ccc(O)cc1)C(=O)N[C@@H](CCCCN)C(=O)N[C@@H](CC(N)=O)C(=O)N[C@@H](CO)C(=O)N[C@H](C(=O)N[C@@H](Cc1c[nH]c2ccccc12)C(=O)N[C@H](C(=O)O)C(C)C)[C@@H](C)O)[C@@H](C)O
IC50 ([4]; Db): 409 nM and 276 nM

SSMHNALHI
IC50 ([4]; Db): 7.6 nM

CC(C)C[C@H](NC(=O)[C@@H](NC(=O)[C@@H](N)CCCCN)[C@@H](C)O)C(=O)N[C@@H](Cc1ccc(O)cc1)C(=O)N[C@@H](CCC(N)=O)C(=O)N[C@@H](CO)C(=O)N[C@@H](CC(N)=O)C(=O)N1CCC[C@H]1C(=O)N[C@@H](Cc1ccc(O)cc1)C(=O)O
IC50 [1, 7]: 1700 nM | IC50 [2, 8]: 35 nM | IC50 [3]: 6910 nM

CC(C)[C@H](NC(=O)[C@@H](NC(=O)[C@H](CC(=O)O)NC(=O)[C@H](CO)NC(=O)[C@H](CC(N)=O)NC(=O)[C@@H](NC(=O)CNC(=O)[C@H](CS)NC(=O)[C@@H](N)Cc1ccccc1)C(C)C)[C@@H](C)O)C(=O)O
IC50 ([4]; Db): 206 nM and 166 nM

FTDLRIVY
IC50 [1, 7]: 813 nM | IC50 [2, 8]: 8060 nM | IC50 [3]: 26 nM

SHYAFSPM
IC50 ([4]; Db): > 88000 nM

ASNENMDAM
IC50 ([4]; Db): 28 nM

TGICNQNII
IC50 ([4]; read-out: Db): 21 nM

RLIQNFLTI
IC50 ([4]; Db): 40 nM

CC[C@H](C)[C@H](NC(=O)[C@H](CCCCN)NC(=O)[C@H](CCC(=O)O)NC(=O)[C@H](CC(C)C)NC(=O)[C@@H](N)[C@@H](C)O)C(=O)N[C@H](C(=O)N[C@@H](CC(N)=O)C(=O)N[C@H](C(=O)N[C@@H](CCC(=O)O)C(=O)N[C@@H](CC(C)C)C(=O)N[C@@H](Cc1ccc(O)cc1)C(=O)O)[C@@H](C)O)[C@@H](C)O
IC50 [1, 7]: 8400 nM | IC50 [2, 8]: 3900 nM | IC50 [3]: 17 nM

YSDIRELRHY
IC50 [1]: 1140 nM | IC50 [2]: 740 nM | IC50 [3]: 14 nM

LTDLRLSCVY
IC50 [1]: 1780 nM | IC50 [2]: 613 nM | IC50 [3]: 45 nM

CC(C)C[C@H](NC(=O)[C@H](CC(=O)O)NC(=O)[C@H](CCC(N)=O)NC(=O)[C@@H](N)[C@@H](C)O)C(=O)N[C@H](C(=O)N[C@@H](CCC(N)=O)C(=O)N[C@@H](CCC(=O)O)C(=O)N[C@@H](CCCCN)C(=O)N[C@@H](Cc1ccc(O)cc1)C(=O)O)C(C)C
IC50 [1]: 33300 nM | IC50 [2]: 3800 nM | IC50 [3]: 57 nM

VSSIFISFY
IC50 [1, 7]: 1800 nM | IC50 [2, 8]: 55 nM | IC50 [3]: 144 nM

FQAAESNERY
IC50 [1, 7]: 1780 nM | IC50 [2, 8]: 372 nM | IC50 [3]: 8960 nM

C[C@H](NC(=O)[C@H](CCC(N)=O)NC(=O)[C@@H](N)CCCNC(=N)N)C(=O)N[C@@H](CCCCN)C(=O)N[C@@H](CCC(N)=O)C(=O)N[C@@H](Cc1c[nH]cn1)C(=O)N[C@H](C(=O)N[C@@H](CS)C(=O)N[C@@H](Cc1ccc(O)cc1)C(=O)O)[C@@H](C)O
IC50 [1, 7]: 155000 nM | IC50 [2, 8]: 108 nM | IC50 [3]: > 135000 nM

RTDILDLWVY
IC50 [1]: 13400 nM | IC50 [2]: 360 nM | IC50 [3]: 85 nM

KYDYYDYSVY
IC50 [1]: 5750 nM | IC50 [2]: 11 nM | IC50 [3]: 186000 nM
